# Key:
# [1] = test system: mouse olfactory receptor Olfr15; experiment: Expression rate of mouse olfactory receptor Olfr15 on the cell membrane of transfected HEK293T cells (immunofluorescence); format: cell-based
# HEK293T cells = experiment: Cell viability rate of transfected HEK293T cells at the time of immunofluorescence; format: cell-based
# Method: The liquid culture medium containing HEK293T cells was added into a Petri dish. The HEK293T cells adhered spontaneously to the inner wall of the Petri dish.
# The plasmid (RTP1S), the plasmid (Rho-myc-Olfr15), and a plasmid (purchased from Evrogen, trade name: pMkate2) coding for a membrane marker were added to the Petri dish, and the HEK293T cells were transfected with these three plasmids by a lipofection method. The liquid culture medium was maintained under an air atmosphere containing 5% CO2 under a temperature of 37 degrees Celsius. In this way, as shown in the uppermost part of FIG. 4, the vessel containing the transformed HEK293 cells and the liquid culture medium was prepared.
# Twenty four hours after the transfection, a liquid culture medium containing chlorpromazine was added into the vessel. […]
# Subsequently, the liquid culture medium was removed. Then, the liquid culture medium not containing chlorpromazine (see FIG. 2) was added to the vessel. Thus, the liquid culture medium was exchanged.
# Four hours after the exchange of the liquid culture medium, the distribution of the mouse olfactory receptor Olfr15 on the cell membrane was evaluated in accordance with the immunofluorescence technique disclosed in Non Patent Literature 2. For example, the expression rate on the cell membrane and the cell viability rate were calculated in accordance with the following formulas. (Expression rate on the cell membrane)=(fluorescence intensity on the cell membrane)/(fluorescence intensity of one entire cell) (Cell viability rate)=(the number of the living cells when the immunofluorescence technique was performed)/(the number of all the cells when the immunofluorescence technique was performed)
# For example, the expression rate and the cell viability rate of not less than ten cells were calculated. Then, each of the average value of these rates was calculated. “Expression rate on the cell membrane” and “Cell viability rate” described in Table 3 are the average rates thereof.
# [2] = chlorpromazine 5 μg/ml, immersion time 0.5 hour
# [3] = chlorpromazine 5 μg/ml, immersion time 1 hour
# [4] = chlorpromazine 5 μg/ml, immersion time 2 hour
# [5] = chlorpromazine 5 μg/ml, immersion time 4 hour
# [6] = chlorpromazine 5 μg/ml, immersion time 9 hour
# [7] = chlorpromazine 5 μg/ml, immersion time 20 hour
# [8] = chlorpromazine 10 μg/ml, immersion time 0.5 hour
# [9] = chlorpromazine 10 μg/ml, immersion time 1 hour
# [10] = chlorpromazine 10 μg/ml, immersion time 2 hour
# [11] = chlorpromazine 10 μg/ml, immersion time 4 hour
# [12] = chlorpromazine 10 μg/ml, immersion time 9 hour
# [13] = chlorpromazine 10 μg/ml, immersion time 20 hour
# [14] = chlorpromazine 25 μg/ml, immersion time 0.5 hour
# [15] = chlorpromazine 25 μg/ml, immersion time 1 hour
# [16] = chlorpromazine 25 μg/ml, immersion time 2 hour
compound,measurement,setting,value
OC[C@H]1O[C@@](CO)(O[C@H]2O[C@H](CO)[C@@H](O)[C@H](O)[C@H]2O)[C@@H](O)[C@@H]1O [sucrose],Expression rate on the cell membrane (%),"[1]; Comparative Example 4: sucrose 250 mM instead of chlorpromazine, otherwise as Example 1",12.5%
CN(C)CCCN1c2ccccc2Sc2ccc(Cl)cc21 [chlorpromazine],Cell viability rate (%),HEK293T cells; [2],81%
same,Cell viability rate (%),HEK293T cells; [3],88%
same,Cell viability rate (%),HEK293T cells; [4],89%
same,Cell viability rate (%),HEK293T cells; [5],82%
same,Cell viability rate (%),HEK293T cells; [6],79%
same,Cell viability rate (%),HEK293T cells; [7],68%
same,Cell viability rate (%),HEK293T cells; [8],89%
same,Cell viability rate (%),HEK293T cells; [9],82%
same,Cell viability rate (%),HEK293T cells; [10],84%
same,Cell viability rate (%),HEK293T cells; [11],81%
same,Cell viability rate (%),HEK293T cells; [12],41%
same,Cell viability rate (%),HEK293T cells; [13],50%
same,Cell viability rate (%),HEK293T cells; [14],89%
same,Cell viability rate (%),HEK293T cells; [15],55%
same,Cell viability rate (%),HEK293T cells; [16],41%
same,Cell viability rate (%),"HEK293T cells; chlorpromazine 25 μg/ml, immersion time 20 hour",11%
same,Expression rate on the cell membrane (%),"[1]; Comparative Example 2: as Example 1 (chlorpromazine 25 μg/ml, 20 hour) but plasmid (RTP1S) not used",9.7%
same,Expression rate on the cell membrane (%),[1]; [2],11.8%
same,Expression rate on the cell membrane (%),[1]; [3],8.1%
same,Expression rate on the cell membrane (%),[1]; [4],12.3%
same,Expression rate on the cell membrane (%),[1]; [5],8.5%
same,Expression rate on the cell membrane (%),[1]; [6],11.5%
same,Expression rate on the cell membrane (%),[1]; [7],14.1%
same,Expression rate on the cell membrane (%),[1]; [8],9.6%
same,Expression rate on the cell membrane (%),[1]; [9],9.9%
same,Expression rate on the cell membrane (%),[1]; [10],19.7%
same,Expression rate on the cell membrane (%),[1]; [11],16.7%
same,Expression rate on the cell membrane (%),[1]; [12],17.4%
same,Expression rate on the cell membrane (%),[1]; [13],19.2%
same,Expression rate on the cell membrane (%),[1]; [14],15.1%
same,Expression rate on the cell membrane (%),[1]; [15],29.5%
same,Expression rate on the cell membrane (%),[1]; [16],24.0%
same,Expression rate on the cell membrane (%),"[1]; chlorpromazine 25 μg/ml, immersion time 20 hour, HEK293T with RTP1S and Rho-myc-Olfr15 plasmids, 4 h after medium exchange",28.4%
same,expression rate of the olfactory receptor Olfr15 on the cell membrane (change when added),"[1]; statement on Table 3, versus medium without chlorpromazine",increases
